Earlier results, collected in patent publication US10183028B2, “Enrichment method of ergosterol peroxide from sporoderm-broken Ganoderma lucidum spore powder” (Guangzhou Polysarm Bioscience Corp., priority 2015, dated 2019).

Experiments:
[1] = system: lymphoma cancer cells (Jurkat); conditions: Chinese application 201210233192.1
[2] = system: malignant breast cancer cells (MT-1); conditions: Chinese application 201210233192.1
Hela cancer cells = conditions: Chinese application 201410311586.3
brain tumor cells (U87) = conditions: Chinese application 201210233192.1
prodenia litura = conditions: Chinese application 01817014.5
formation of melanin = conditions: Chinese application 01817014.5
pieris rapae = conditions: Chinese application 01817014.5
[3] = system: human breast cancer and liver cancer; conditions: Chinese application 200610126091.9
fungal = conditions: Chinese application 200810119948.3
[4] = system: drug-resistant brain tumor stem cells; conditions: Chinese application 201210233192.1
aphid = conditions: Chinese application 01817014.5

For `CC(C)[C@@H](C)C=C[C@@H](C)[C@H]1CC[C@@H]2[C@]1(C)CC[C@H]1[C@]23C=C[C@]2(C[C@@H](O)CC[C@]12C)OO3` [Ergosterol peroxide, 5α,8α-Epidioxyergosta-6,22-dien-3β-ol], the “inhibitory effect on lymphoma cancer cells (Jurkat)” value [1] is given as “significant inhibitory effect”, the “inhibitory effect on malignant breast cancer cells (MT-1)” value [2] is given as “significant inhibitory effect” and the “synergy with taxol in killing or damaging Hela cancer cells” value (Hela cancer cells) is given as “synergy with taxol”. For the same molecule, the “inhibitory effect on brain tumor cells (U87)” value (brain tumor cells (U87)) was “significant inhibitory effect”, the “poisoning effects on agricultural pests” value (prodenia litura) was “poisoning effects” and the “inhibitory effects on the formation of melanin” value (formation of melanin) was “strong inhibitory effects”. For the same molecule, the “poisoning effects on agricultural pests” value (pieris rapae) was “poisoning effects”, the “harmful effects on immune organs and weight” value [3] was “no harmful effects” and the anti-tumor pharmacological activity ([3]; human breast cancer and liver cancer) was “significant anti-tumor”. For the same molecule, the antifungal bioactivity (fungal) was “remarkable antifungal bioactivity”, the “killing of drug-resistant brain tumor stem cells” value [4] was “kills” and the “poisoning effects on agricultural pests” value (aphid) was “poisoning effects”.
